Source: the supplement of paper PMC10307832

Compound: N[C@@H]1CCCN(c2c(/C=C3\SC(=O)NC3=O)cccc2-c2ccccc2)C1 [AZD1208] + CC(=O)c1c(C)c2cnc(Nc3ccc(N4CCNCC4)cn3)nc2n(C2CCCC2)c1=O [Palbociclib] (partner 0.5 µM)
Assay: relative viability (nuclei count vs DMSO), 5 days (fraction); higher = more cells survive
Details: first compound 8 µM
How it was run: (§1)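 Values are medians from duplicate plates. Each reflects relative viability, defined as the nuclei count of treated wells over that of vehicle wells. Lung cancer cell lines in 1536-well plates were pin-tool dosed one day after seeding with one drug alone or with a fixed anchor-drug dose plus five library-drug doses (not always all listed) in √10 steps, then fixed, stained and imaged at 4× after 5 days.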

Cell Line | relative viability
RERF-LC-KJ | 0.802

Compound: N[C@@H]1CCCN(c2c(/C=C3\SC(=O)NC3=O)cccc2-c2ccccc2)C1 [AZD1208] + O=C(c1cc(Cc2n[nH]c(=O)c3ccccc23)ccc1F)N1CCN(C(=O)C2CC2)CC1 [Olaparib] (partner 8 µM)
Assay: as above
Details: first compound 0.08 µM
How it was run: as §1

Cell Line | relative viability
NCI-H650 | 0.401
CAL-12T | 0.81
NCI-H1651 | 0.198
EPLC-272H | 0.647
NCI-H23 | 0.321
NCI-H1792 | 0.414
NCI-H1355 | 0.717
NCI-H322M | 0.762
NCI-H1437 | 0.651
NCI-H1755 | 0.835
NCI-H2085 | 0.769
HCC-15 | 0.664
NCI-H1793 | 0.878
PC-3 [JPC-3] | 1.17
EKVX | 0.793
LC-2-ad | 0.315
NCI-H1944 | 0.387
NCI-H1975 | 0.734
SK-LU-1 | 0.446
ABC-1 | 0.623
NCI-H358 | 0.636
NCI-H661 | 0.762
RERF-LC-KJ | 0.826

Same assay, conditions: first compound 0.253 µM

Cell Line | relative viability
NCI-H650 | 0.392
CAL-12T | 0.737
NCI-H1651 | 0.186
EPLC-272H | 0.773
NCI-H23 | 0.324
NCI-H1792 | 0.39
NCI-H1355 | 0.689
NCI-H322M | 0.799
NCI-H1437 | 0.648
NCI-H1755 | 0.83
NCI-H2085 | 0.913
HCC-15 | 0.718
NCI-H1793 | 0.649
PC-3 [JPC-3] | 1.31
EKVX | 0.941
LC-2-ad | 0.781
NCI-H1944 | 0.411
NCI-H1975 | 0.755
SK-LU-1 | 0.419
ABC-1 | 0.813
NCI-H358 | 0.515
NCI-H661 | 0.754
RERF-LC-KJ | 0.965

Same assay, conditions: first compound 0.8 µM

Cell Line | relative viability
NCI-H650 | 0.388
CAL-12T | 0.633
EPLC-272H | 0.906
NCI-H23 | 0.292
NCI-H1355 | 0.672
NCI-H1437 | 0.606
NCI-H1755 | 0.841
NCI-H2085 | 0.79
HCC-15 | 0.66
NCI-H1793 | 0.767
PC-3 [JPC-3] | 1.1
EKVX | 0.811
LC-2-ad | 0.736
NCI-H1944 | 0.361
NCI-H1975 | 0.766
SK-LU-1 | 0.367
ABC-1 | 0.56
NCI-H358 | 0.501
NCI-H661 | 0.728
RERF-LC-KJ | 0.857

Same assay, conditions: first compound 2.53 µM

Cell Line | relative viability
NCI-H650 | 0.359
CAL-12T | 0.711
NCI-H1651 | 0.172
EPLC-272H | 0.687
NCI-H23 | 0.298
NCI-H1792 | 0.44
NCI-H1355 | 0.68
NCI-H322M | 0.726
NCI-H1437 | 0.673
NCI-H1755 | 0.849
NCI-H2085 | 0.764
HCC-15 | 0.636
NCI-H1793 | 0.744
PC-3 [JPC-3] | 1.2
EKVX | 0.829
LC-2-ad | 0.663
NCI-H1944 | 0.373
NCI-H1975 | 0.883
SK-LU-1 | 0.448
ABC-1 | 1.17
NCI-H358 | 0.544
NCI-H661 | 0.745
RERF-LC-KJ | 0.825

Same assay, conditions: first compound 8 µM

Cell Line | relative viability
NCI-H650 | 0.379
CAL-12T | 0.797
NCI-H1651 | 0.172
EPLC-272H | 0.656
NCI-H23 | 0.279
NCI-H1792 | 0.246
NCI-H1355 | 0.657
NCI-H322M | 0.834
NCI-H1437 | 0.676
NCI-H1755 | 0.66
NCI-H2085 | 0.849
HCC-15 | 0.613
NCI-H1793 | 0.675
PC-3 [JPC-3] | 1.19
EKVX | 0.821
LC-2-ad | 0.728
NCI-H1944 | 0.344
NCI-H1975 | 0.793
SK-LU-1 | 0.436
ABC-1 | 0.759
NCI-H358 | 0.525
NCI-H661 | 0.758
RERF-LC-KJ | 0.673
